One series deals with T1, acid ceramidase (Homo sapiens, UniProt Q13510).
T1 construct: Cell lysates overexpressing acid ceramidase were used as the enzyme source; expressed in transfected cells
T1 sequence (Q13510 22-395): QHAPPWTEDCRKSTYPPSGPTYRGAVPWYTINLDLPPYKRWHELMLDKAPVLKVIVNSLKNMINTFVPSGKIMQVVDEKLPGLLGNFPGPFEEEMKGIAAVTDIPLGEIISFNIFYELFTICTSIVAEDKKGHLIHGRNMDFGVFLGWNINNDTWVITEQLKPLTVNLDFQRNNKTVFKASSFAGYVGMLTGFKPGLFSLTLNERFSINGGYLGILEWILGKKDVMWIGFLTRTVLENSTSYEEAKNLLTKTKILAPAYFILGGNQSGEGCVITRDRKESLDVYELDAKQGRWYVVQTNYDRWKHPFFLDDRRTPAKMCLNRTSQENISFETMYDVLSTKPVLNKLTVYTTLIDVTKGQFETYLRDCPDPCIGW
Description: Acid ceramidase inhibition, biochemical fluorescent assay with cell lysates overexpressing acid ceramidase, substrate Rbm14-12. The note with it: substrate Rbm14-12 6.3 μM. Here is the method:
The ability of exemplary compounds to inhibit acid ceramidase was measured.
Cell lysates overexpressing acid ceramidase were used as the enzyme source for compound potency determination in a biochemical fluorescent assay. Briefly, compounds were preincubated with 10 μg protein of cell lysates in a dose-response manner for 1 hr at RT in the assay buffer containing 25 mM NaAC and 100 mM NaCl, pH 4.5. The reaction was initiated by the addition of substrate Rbm14-12 at a final concentration of 6.3 μM. The reaction was run at RT for 1 hr before it was stopped by the addition of the stopping buffer containing 20% methanol (v/v), 1 mg/ml NaIO4, 0.1 M glycine, pH 10.6. The samples were incubated with the stopping buffer at RT for 1 hr to allow the fluorescent product to be formed. Finally, the plate was read with SpectraMax i3 plate reader (Molecular Devices) at ex360 nm and em446 nm. Data were collected and used to determine the IC50 values of compounds by curve fitting to the four-parameter inhibition equation.

The nature of series [1]: Compound solubility in water.
[2] abbreviates: pH 4.5, 1 hr preincubation at RT.

The text below walks through data of US20220380319A1 (Bial - R&D Investments, S.A., priority 2019, published 2022).

Usually IC50 stands for the point on the concentration scale where inhibition reaches its midpoint. High values mean a need for much substance, low ones inhibition by little substance. In general, solubility refers to how much of the substance goes into solution per volume.

In brackets after ≈: the same amount, converted by molar mass. A value given as a limit tells only on which side of the number the result lay.

Take `CC(C)CCNC(=O)n1cnc2c(N3CCN4CCCCC4C3)cccc21` (stereo not shown) [Example 198, 4-(Hexahydro-1H-pyrido[1,2-a]pyrazin-2(6H)-yl)-N-iso-pentyl-1H-benzo[d]imidazole-1-carboxamide]: the IC50 at acid ceramidase (pH 4.5) was 200 to 1000 nM. The amount in solution in series [1] (solubility) came to 28 µg/mL (≈ 75.8 µM).
As to `CC(C)CNC(=O)n1cnc2cc(-c3cncnc3)c(C(F)(F)F)cc21` [Example 77a, N-iso-Butyl-5-(pyrimidin-5-yl)-6-(trifluoromethyl)-1H-benzo[d]imidazole-1-carboxamide], the IC50 on acid ceramidase (setting [2]) was under 200 nM. Further, the concentration in solution in series [1] (solubility) was 14.5 µg/mL (≈ 39.9 µM).
Turning to `COc1cc(N2CCOCC2)cc2c1ncn2C(=O)NCCc1ccccc1` [Example 39, 4-Methoxy-6-morpholino-N-phenethyl-1H-benzo[d]imidazole-1-carboxamide], the IC50 on acid ceramidase (setting [2]) was under 200 nM. This molecule had a solubility in series [1] of 16.3 µg/mL (≈ 42.8 µM).
Turning to `O=C(NCCOc1ccccc1)n1cnc2cc(C(F)(F)F)ccc21` [Example 46a, N-(2-Phenoxyethyl)-5-(trifluoromethyl)-1H-benzo[d]imidazole-1-carboxamide], the IC50 at acid ceramidase (setting [2]) is under 200 nM. Also, in series [1], the solubility turned out to be 0.4 µg/mL (≈ 1.15 µM).
In turn, `CCC(C)CNC(=O)n1c(OC)nc2c(OC)cccc21` (stereo not shown) [Example 117, 2,4-Dimethoxy-N-(2-methylbutyl)-1H-benzo[d]imidazole-1-carboxamide] gave an IC50 on acid ceramidase (setting [2]) of 200 to 1000 nM. The amount in solution in series [1] (solubility) came to 23.4 µg/mL (≈ 80.3 µM).
As for `CCCCNC(=O)n1cnc2c(C3CCN(C)CC3)cc(C(F)(F)F)cc21` [Example 57, N-Butyl-4-(1-methylpiperidin-4-yl)-6-(trifluoromethyl)-1H-benzo[d]imidazole-1-carboxamide], the IC50 against acid ceramidase (setting [2]) is under 200 nM. In series [1], this molecule yielded a solubility of 24.1 µg/mL (≈ 63 µM).
For `CC(C)C#CCNC(=O)n1cnc2c(N3CCC4CN(C)CC4CC3)cccc21` (stereo not shown) [Example 312, 4-(2-Methyloctahydropyrrolo[3,4-d]azepin-6(1H)-yl)-N-(4-methylpent-2-yn-1-yl)-1H-benzo[d]imidazole-1-carboxamide], at acid ceramidase (pH 4.5), the IC50 is under 200 nM. Also, in series [1], the solubility is 24 µg/mL (≈ 61 µM).
Take `COc1nc2ccc(N3CCOCC3)cc2n1C(=O)NCCCc1ccco1` [Example 228a, N-(3-(Furan-2-yl)propyl)-2-methoxy-6-morpholino-1H-benzo[d]imidazole-1-carboxamide]: the concentration for half-maximal inhibition (IC50) on acid ceramidase (pH 4.5) fell in the range of 200 to 1000 nM. In series [1], this molecule showed a solubility of 29 µg/mL (≈ 75.4 µM).
Molecule `O=C(NCCN1CCOCC1)n1cnc2ccccc21` [Example 41, N-(2-Morpholinoethyl)-1H-benzo[d]imidazole-1-carboxamide] yielded a 50% inhibitory concentration (IC50) against acid ceramidase (setting [2]) of over 1000 nM. The concentration in solution in series [1] (solubility) was 32 µg/mL (≈ 117 µM).
Consider `CCOc1nc2cccnc2n1C(=O)NCCCc1ccccc1` [Example 91b, 2-ethoxy-N-(3-phenylpropyl)-3H-imidazo[4,5-b]pyridine-3-carboxamide], for which the half-maximal inhibitory concentration (IC50) against acid ceramidase (setting [2]) was under 200 nM. Also, in series [1], the solubility stood at 21.1 µg/mL (≈ 65 µM).
Molecule `COc1nc2ccc(N3CCOCC3)cc2n1C(=O)NCCCc1ccccc1` [Example 134a, 2-Methoxy-6-morpholino-N-(3-phenylpropyl)-1H-benzo[d]imidazole-1-carboxamide] had an IC50 on acid ceramidase (setting [2]) of under 200 nM. This molecule also came in with a solubility in series [1] of 17 µg/mL (≈ 43.1 µM).
At acid ceramidase (pH 4.5), `CN1CCN(c2cccc3c2ncn3C(=O)NCCCc2ccccc2)CC1` [Example 192, 4-(4-Methylpiperazin-1-yl)-N-(3-phenylpropyl)-1H-benzo[d]imidazole-1-carboxamide] registered an IC50 of under 200 nM. Besides, the solubility in series [1] is 12 µg/mL (≈ 31.8 µM).
At acid ceramidase (setting [2]), `CN1CCN(CCNC(=O)n2cnc3cc(C(F)(F)F)ccc32)CC1` [Example 78, N-(2-(4-Methylpiperazin-1-yl)ethyl)-5-(trifluoromethyl)-1H-benzo[d]imidazole-1-carboxamide] yielded an IC50 of over 1000 nM. This molecule also gave a solubility in series [1] of 32.7 µg/mL (≈ 92 µM).
Molecule `CCCCNC(=O)n1cnc2c(C3CCN(C)CC3)cc(OC)cc21` [Example 58, N-Butyl-6-methoxy-4-(1-methylpiperidin-4-yl)-1H-benzo[d]imidazole-1-carboxamide] showed an IC50 against acid ceramidase (setting [2]) of 200 to 1000 nM. In series [1], the solubility turned out to be 28.1 µg/mL (≈ 81.6 µM).
For `O=C(NCCCCc1ccccc1)n1cnc2c(N3CCC4(CC3)COC4)cccc21` [Example 217, N-(4-Phenylbutyl)-4-(2-oxa-7-azaspiro[3.5]nonan-7-yl)-1H-benzo[d]imidazole-1-carboxamide], at acid ceramidase (pH 4.5), the IC50 is under 200 nM. The same molecule showed a solubility in series [1] of 0.6 µg/mL (≈ 1.43 µM).
On acid ceramidase (pH 4.5), `CN1CCN(C2CN(c3cccc4c3ncn4C(=O)NCC#Cc3ccccc3)C2)CC1` [Example 332, 4-(3-(4-Methylpiperazin-1-yl)azetidin-1-yl)-N-(3-phenylprop-2-yn-1-yl)-1H-benzo[d]imidazole-1-carboxamide] returned an IC50 of under 200 nM. The solubility in series [1] was determined as 24 µg/mL (≈ 56 µM).
For `COc1cc(C2CCN(C)CC2)c2ncn(C(=O)NCCCCc3ccccc3)c2c1` [Example 136, 6-Methoxy-4-(1-methylpiperidin-4-yl)-N-(4-phenylbutyl)-1H-benzo[d]imidazole-1-carboxamide], the IC50 against acid ceramidase (setting [2]) is under 200 nM. This molecule also yielded a solubility in series [1] of 21 µg/mL (≈ 49.9 µM).
For `CC(C)CCNC(=O)n1cnc2c(N3CCN(C)CC3)cc(C#N)cc21` [Example 180, 6-Cyano-N-iso-pentyl-4-(4-methylpiperazin-1-yl)-1H-benzo[d]imidazole-1-carboxamide], the IC50 on acid ceramidase (pH 4.5) was under 200 nM. Besides, in series [1], the concentration in solution (solubility) came to 23 µg/mL (≈ 64.9 µM).
In turn, `O=C(NCCOCc1ccccc1)n1cnc2ccccc21` [Example 42, N-(2-(Benzyloxy)ethyl)-1H-benzo[d]imidazole-1-carboxamide] returned an IC50 against acid ceramidase (setting [2]) of under 200 nM. This molecule gave a solubility in series [1] of 17.7 µg/mL (≈ 59.9 µM).
On the same counts, the results for `CCCCNC(=O)n1cnc2ccccc21` [Example 24, N-Butyl-1H-benzo[d]imidazole-1-carboxamide] are under 200 nM and 21.9 µg/mL (≈ 101 µM).
On the same counts, the results for `CC(C)CCNC(=O)n1cnc2c(N3CC4CC(C3)N4C)cccc21` [Example 160, N-iso-Pentyl-4-(6-methyl-3,6-diazabicyclo[3.1.1]-heptan-3-yl)-1H-benzo[d]imidazole-1-carboxamide] are 200 to 1000 nM and 35 µg/mL (≈ 103 µM).
`CCCN1CCN(c2cccc3c2ncn3C(=O)NCCC(C)C)CC1` [Example 202, N-iso-Pentyl-4-(4-propylpiperazin-1-yl)-1H-benzo[d]imidazole-1-carboxamide] had an IC50 at acid ceramidase (pH 4.5) of 200 to 1000 nM. In series [1], this molecule showed a solubility of 15 µg/mL (≈ 42 µM).
As to `CC(C)CCNC(=O)n1cnc2c(N3CCCOCC3)cccc21` [Example 173, N-iso-Pentyl-4-(1,4-oxazepan-4-yl)-1H-benzo[d]imidazole-1-carboxamide], the IC50 against acid ceramidase (pH 4.5) was in the range of 200 to 1000 nM. This molecule also came in with a solubility in series [1] of 17 µg/mL (≈ 51.4 µM).
On to `COc1nc2ccccc2n1C(=O)NCCc1ccccc1` [Example 3, 2-Methoxy-N-phenethyl-1H-benzo[d]imidazole-1-carboxamide], for which, on acid ceramidase (setting [2]), the IC50 was under 200 nM. Besides, the solubility in series [1] amounted to 10 µg/mL (≈ 33.9 µM).
As for `CCCCNC(=O)n1c(OC)nc2cc(-c3cncnc3)ccc21` [Example 82b, N-Butyl-2-methoxy-5-(pyrimidin-5-yl)-1H-benzo[d]imidazole-1-carboxamide], the IC50 against acid ceramidase (setting [2]) was in the range of 200 to 1000 nM. Moreover, the solubility in series [1] came to 24.5 µg/mL (≈ 75.3 µM).
With `CN1CCC(c2cc(C(F)(F)F)cc3c2ncn3C(=O)NCCc2ccccc2)CC1` [Example 54, 4-(1-Methylpiperidin-4-yl)-N-phenethyl-6-(trifluoromethyl)-1H-benzo[d]imidazole-1-carboxamide], the IC50 against acid ceramidase (setting [2]) was under 200 nM. In series [1], this molecule registered a solubility of 22.7 µg/mL (≈ 52.7 µM).
As to `COCCNC(=O)n1c(OC)nc2ncccc21` [Example 95, 2-Methoxy-N-(2-methoxyethyl)-1H-imidazo[4,5-b]pyridine-1-carboxamide], on acid ceramidase (setting [2]), the IC50 was 200 to 1000 nM.
As for `CCOc1nc2cccnc2n1C(=O)NCCC(C)C` [Example 113, 2-Ethoxy-N-iso-pentyl-3H-imidazo[4,5-b]pyridine-3-carboxamide], the IC50 against acid ceramidase (setting [2]) is under 200 nM.
At acid ceramidase (setting [2]), `Cc1nc2ccccc2n1C(=O)NCCc1ccccc1` [Example 2, 2-Methyl-N-phenethyl-1H-benzo[d]imidazole-1-carboxamide] registered an IC50 of under 200 nM.
On to `Cn1c(=O)n(C(=O)NCCCCn2ccc(C(C)(C)C)n2)c2ncccc21` [Example 135b, N-(4-(3-(tert-butyl)-1H-pyrazol-1-yl)butyl)-1-methyl-2-oxo-1,2-dihydro-3H-imidazo[4,5-b]pyridine-3-carboxamide], for which the concentration in solution in series [1] (solubility) was 23 µg/mL (≈ 62.1 µM).
On acid ceramidase (setting [2]), `COc1nc2ncccc2n1C(=O)NCCCOc1ccccc1` [Example 129, 2-Methoxy-N-(3-phenoxypropyl)-1H-imidazo[4,5-h]pyridine-1-carboxamide] returned an IC50 of under 200 nM.
The molecule `CC(C)CCNC(=O)n1cnc2c(N3CCN(C)CC3)cc(Cl)cc21` [Example 112, 6-Chloro-N-iso-pentyl-4-(4-methylpiperazin-1-yl)-1H-benzo[d]imidazole-1-carboxamide] showed a solubility in series [1] of 27.5 µg/mL (≈ 75.6 µM).
